Patent publication US20230040247A1, “COMPOUNDS FOR TREATING NEURODEGENERATIVE DISEASES” (Amabiotics, priority 2019, published 2023)

Tested on: endogenous a-synuclein phosphorylation at serine 129
Test: huPFFs-induced endogenous a-synuclein phosphorylation at serine 129 in primary cortical cultures (EP1536Y immunofluorescence)
Type: cell-based, mouse
Protocol: The study was designed to evaluate the effects of queuine in an in vitro cell-based experimental model of synucleinopathy. The study aimed to evaluate the impact of queuine on the experimental synucleinopathy, in particular of the Lewy body type, induced by exogenous human preformed a-synuclein fibrils (huPFFs) in cortical cultures of wild-type (WT) mice (Volpicelli-Daley et al. (2011) Neuron. 72:57-7).
Queuine was evaluated for its capability to afford protection against the induction of endogenous a-synuclein phosphorylation at serine 129 (a surrogate marker of de novo a-synuclein aggregation) triggered by exposure to exogenous human recombinant (unphosphorylated) a-synuclein preformed fibrils (huPFFs).
Primary cultures of dissociated cortices from embryonic day E18 WT mouse embryos were used as the biological system. Timed pregnant female mice were received from Charles River Laboratories 2 days before initiation of the primary culture. […] At 30 DIV, the neuronal cultures were fixed with PFA, and the effects of the treatments were evaluated by performing two double immunostainings: • (i) D37A6/Syn1 to detect total rodent a-synuclein/human plus rodent non aggregated a-synuclein; • (ii) EP1536Y/Syn211 to detect rodent and human a-synuclein phosphorylated at S129/total human a-synuclein.
The induction of a-synuclein phosphorylation was quantified by measuring the accumulation of phospho-a-synuclein (length of the phospho-a-synuclein-positive neurite network, number of phospho-a-synuclein positive cell bodies).
The experimental conditions were performed in quadruplicate (for compound-treated conditions+/−huPFFs) and triplicate (for controls+/−huPFFs) wells. An array of nine individual microscopic fields were acquired in each single well, and 3 channels were recorded for each field (green fluorescence excited @488 nm, red fluorescence excited @594 nm, and phase contrast). […]
To further evaluate the effects of queuine, the EP1536Y signal was segmented to quantify the phospho-a-synuclein positive neurites. […]

7-(3,4-trans-4,5-cis-dihydroxy-1-cyclopenten-3-ylaminomethyl)-7-deazaguanine [queuine]
effect on untreated neurones (induction of synuclein phosphorylation at S129) (WT mouse cortical neurones without huPFFs, concentration range tested (10 μM, 1 μM, 0.1 μM)): no effect
EP1536Y immunofluorescence signal, representative of the phosphorylation of a-synuclein (WT mouse cortical neurons exposed to 10 nM huPFFs, queuine pretreatment at 100 nM compared to control (FIG. 1)): decreased
decrease of a-synuclein phosphorylation at S129 induced by huPFFs (huPFFs-treated (10 nM) WT mouse cortical neurones, all doses tested (10 μM, 1 μM, 0.1 μM), normalised to huPFFs condition (FIG. 2), significant): approx. −50%
